This is an account of results in ChEMBL document CHEMBL4483862, “Open-source discovery of chemical leads for next-generation chemoprotective antimalarials” (2018).

The subject of this test is Plasmodium berghei. As to the kind of experiment: Luciferase/luciferin-expressing antifolate-resistant parasites were used to infect a culture of HepG2 cells that were pre-incubated with compounds. Infected hepatocytes emit light due to the luciferase reaction. Assay results are presented as the percent inhibition of light emission compared to control. […]. The format is functional. As to conditions: sporozoite; for IC90: read-out: LUCIFERASE INFECTION ASSAY - IC90.

Setting [1] is: read-out: LUCIFERASE INFECTION ASSAY - IC50.

SMILES strings stand for the structures.

Turning to `O=C(OCc1cccc(Cl)c1)c1cncn1-c1ccccc1`, the IC90 was above 10 µM. Also, under setting [1], the IC50 was above 10 µM.
With `Cc1c(C)c(C)c(S(=O)(=O)Nc2ccc3c[nH]nc3c2)c(C)c1C`, the IC90 is above 10 µM. The concentration for half-maximal inhibition (IC50) (HEPG2TOX_HILL_SLOPE 1.73, HEPG2TOX_R_SQUARED 0.711, PBLUC_HILL_SLOPE 1.55, PBLUC_R_SQUARED 0.469, read-out: LUCIFERASE INFECTION ASSAY - IC50) is 4.27 µM.
For `O=C(CSCc1cn(-c2ccccc2)nc1-c1ccccc1)NC1CCCC1`, the IC90 is above 10 µM. Under “PBLUC_HILL_SLOPE 4.68, PBLUC_R_SQUARED 0.205, read-out: LUCIFERASE INFECTION ASSAY - IC50”, the IC50 was determined as 6.9 µM.
As to `O=C1C=CC(=O)N1Cc1ccc2c(c1)OCO2`, the concentration for an effect of 90% (IC90) was 13.4 µM. In addition, the half-inhibitory concentration (IC50) (PBLUC_HILL_SLOPE 13.6, PBLUC_R_SQUARED 0.619, read-out: LUCIFERASE INFECTION ASSAY - IC50) turned out to be 11.4 µM.
With `Cc1ccnc(NC(=O)C2CC(=O)N(c3ccc(C)c(C)c3)C2)c1` (stereo not given), the IC90 amounted to 4.04 µM. Under “HEPG2TOX_HILL_SLOPE 1.86, HEPG2TOX_R_SQUARED 0.878, PBLUC_HILL_SLOPE 11.1, PBLUC_R_SQUARED 0.462, read-out: LUCIFERASE INFECTION ASSAY - IC50”, the IC50 was found to be 3.31 µM.
Regarding `Cc1cc(=O)nc(N/N=C/c2cc(C)n(-c3ccc(C)c(C)c3)c2C)[nH]1`, the IC90 was above 10 µM. Moreover, for the setting “PBLUC_HILL_SLOPE 2.67, PBLUC_R_SQUARED 0.2, read-out: LUCIFERASE INFECTION ASSAY - IC50”, the IC50 was found to be 9.4 µM.
Take `CN(C)c1ccc(-c2cnc3cnc(-c4cnn(Cc5ccccc5)c4)cn23)cc1`: the 90% effect concentration (IC90) was above 8.37 µM. Besides, the IC50 (FFLUC_HILL_SLOPE 6.21, FFLUC_R_SQUARED 0.0566, PBLUC_HILL_SLOPE 1.47, PBLUC_R_SQUARED 0.566, read-out: LUCIFERASE INFECTION ASSAY - IC50) came to 3.91 µM.
For `Cn1c(Nc2ccccc2)nc2cnc(-c3ccc4ccccc4c3)cc21`, the concentration for an effect of 90% (IC90) was above 10 µM. In addition, the IC50 (PBLUC_HILL_SLOPE 3.04, PBLUC_R_SQUARED 0.156, read-out: LUCIFERASE INFECTION ASSAY - IC50) came to 6.85 µM.
Take `O=[N+]([O-])c1cnc(Sc2nnc(SCC3CC3)s2)s1`: the IC90 was above 9.93 µM. In addition, the IC50 (PBLUC_HILL_SLOPE 11.6, PBLUC_R_SQUARED 0.0358, read-out: LUCIFERASE INFECTION ASSAY - IC50) was 9.69 µM.
Take `O=C(NNC(=O)c1[nH]c2ccccc2c1-c1ccccc1)Nc1cccc(C(F)(F)F)c1`: the 90% effect concentration (IC90) was above 7.53 µM. Besides, the IC50 under setting [1] was above 7.53 µM.
On to `COc1ccc(-c2nnc(SCn3nnc4ccccc4c3=O)n2-c2ccccc2C(C)C)cc1`, for which the IC90 was above 10 µM. Also, for the setting “FFLUC_HILL_SLOPE 2.15, FFLUC_R_SQUARED 0.39, read-out: LUCIFERASE INFECTION ASSAY - IC50”, the half-inhibitory concentration (IC50) is above 10 µM.
As to `O=c1nc2n(c3ccccc13)CC/C2=C\c1ccc(Cl)cc1`, the IC90 is above 10.7 µM. Besides, under setting [1], the IC50 is above 10.7 µM.
In the case of `NC(Cc1ccc(F)cc1)c1csc(Nc2nncc3ccccc23)n1` (stereo not given), the 90% effect concentration (IC90) is above 9.03 µM. In addition, under setting [1], the 50% inhibitory concentration (IC50) was above 9.03 µM.
Turning to `CCC(C)NC(=O)c1c(NC(=O)c2cccc(C#N)c2)nc2ccc(C)cn12` (stereo not given), the IC90 was 3.79 µM. For the same compound, the IC50 (HEPG2TOX_HILL_SLOPE 2.26, HEPG2TOX_R_SQUARED 0.914, PBLUC_HILL_SLOPE 14.3, PBLUC_R_SQUARED 0.23, read-out: LUCIFERASE INFECTION ASSAY - IC50) worked out at 3.25 µM.
Take `Cc1cc(C(C)(C)C)cc(C)c1CCNC(=O)NCCNC(=O)c1ccco1`: the IC90 is above 10 µM. Besides, under “PBLUC_HILL_SLOPE 2.38, PBLUC_R_SQUARED 0.642, read-out: LUCIFERASE INFECTION ASSAY - IC50”, the IC50 stood at 5.63 µM.
For the compound `COc1cccc(CC(=O)N2C[C@H](OC)C[C@H]2C(=O)NCC2CCCCC2)c1`, the IC90 was above 8.49 µM. Besides, the half-maximal inhibitory concentration (IC50) under setting [1] is above 8.49 µM.
For `CC(C)[C@H](NS(=O)(=O)c1ccccc1)C(=O)NCc1ccccc1`, the IC90 was above 9.53 µM. The IC50 under setting [1] was above 9.53 µM.
For `COc1cc(Nc2cc3c(cn2)nc(NCc2ccccc2)n3C)cc(C(F)(F)F)c1`, the IC90 is above 10 µM. Also, the 50% inhibitory concentration (IC50) under setting [1] was above 10 µM.
Take `CC(Sc1nc2scc(-c3ccccc3)c2c(=O)n1C)c1ccccc1` (stereo not given): the 90% effect concentration (IC90) is above 10 µM. In addition, the concentration for half-maximal inhibition (IC50) (HEPG2TOX_HILL_SLOPE 0.394, HEPG2TOX_R_SQUARED 0.0907, read-out: LUCIFERASE INFECTION ASSAY - IC50) is above 10 µM.
Regarding `COc1ccccc1N(CC(=O)NCC12CC3CC(CC(C3)C1)C2)S(=O)(=O)c1ccccc1`, the IC90 is above 10 µM. Besides, for the setting “HEPG2TOX_HILL_SLOPE 6.27, HEPG2TOX_R_SQUARED 0.869, read-out: LUCIFERASE INFECTION ASSAY - IC50”, the IC50 is above 10 µM.
As to `COc1cc(Nc2cncc(-c3ccc(N)cc3)n2)cc(OC)c1OC`, the 90% effect concentration (IC90) is 1.84 µM. Also, under “HEPG2TOX_HILL_SLOPE 1.6, HEPG2TOX_R_SQUARED 0.917, PBLUC_HILL_SLOPE 3.36, PBLUC_R_SQUARED 0.719, read-out: LUCIFERASE INFECTION ASSAY - IC50”, the IC50 was 0.955 µM.
With `CN1N=C2c3ccccc3CCCC2C1c1ccc(C(C)(C)C)cc1` (stereo not given), the concentration for an effect of 90% (IC90) was found to be 3.51 µM. Besides, under “PBLUC_HILL_SLOPE 38, PBLUC_R_SQUARED 0.372, read-out: LUCIFERASE INFECTION ASSAY - IC50”, the concentration for half-maximal inhibition (IC50) is 3.31 µM.
`Cc1cc(N2CCN(C(=O)c3cc(C4CC4)nn3-c3ccccc3)CC2)nc(C(C)C)n1`: the 90% effect concentration (IC90) was above 10 µM. Moreover, for the setting “HEPG2TOX_HILL_SLOPE 7.58, HEPG2TOX_R_SQUARED 0.717, PBLUC_HILL_SLOPE 1.92, PBLUC_R_SQUARED 0.299, read-out: LUCIFERASE INFECTION ASSAY - IC50”, the concentration for half-maximal inhibition (IC50) worked out at 4.83 µM.
Take `COCCNC(=O)CN(C)S(=O)(=O)c1ccc2c(c1)CCC(=O)N2`: the IC90 is above 10 µM. Moreover, the IC50 under setting [1] was above 10 µM.
With `Cc1ccc(Cn2nc(C)c(C(=O)OCC(=O)/C=C3\N(C)c4ccccc4C3(C)C)c2Cl)cc1`, the IC90 is above 10 µM. The IC50 under setting [1] is above 10 µM.
Turning to `Cc1cc2ncn(CC(O)CN3CCOCC3)c2cc1C` (stereo not given), the IC90 was above 10 µM. For the same compound, the IC50 under setting [1] is above 10 µM.
Take `Cc1ccc(-c2nnc3n2CCCCC3)cc1NC(=O)c1ccc([N+](=O)[O-])o1`: the IC90 is above 10 µM. For the same compound, the IC50 (HEPG2TOX_HILL_SLOPE 6.11, HEPG2TOX_R_SQUARED 0.316, PBLUC_HILL_SLOPE 1.35, PBLUC_R_SQUARED 0.486, read-out: LUCIFERASE INFECTION ASSAY - IC50) turned out to be 6.12 µM.
As to `COC(=O)c1cc2ccccc2cc1OC(=O)COc1ccc(C#N)cc1`, the IC90 is above 10 µM. Also, the IC50 under setting [1] is above 10 µM.
For `c1ccn(C2CCNCC2)c1`, the IC90 was above 22 µM. For the same compound, the 50% inhibitory concentration (IC50) under setting [1] was above 22 µM.
Regarding `Fc1cccc(-c2cnc3sc(NCCc4ccncc4)nn23)c1`, the 90% effect concentration (IC90) is above 9.72 µM. For the same compound, the IC50 (HEPG2TOX_HILL_SLOPE 0.66, HEPG2TOX_R_SQUARED 0.128, read-out: LUCIFERASE INFECTION ASSAY - IC50) was above 9.72 µM.
Take `N#Cc1ccc(NC(=O)C2CC2(Cl)Cl)cc1` (stereo not given): the IC90 is above 10 µM. Further, the half-inhibitory concentration (IC50) under setting [1] is above 10 µM.
Turning to `O=c1c2ccccc2ncn1CCOCCOc1ccccc1-c1ccccc1`, the 90% effect concentration (IC90) was above 8.54 µM. The half-maximal inhibitory concentration (IC50) (HEPG2TOX_HILL_SLOPE 7.75, HEPG2TOX_R_SQUARED 0.123, read-out: LUCIFERASE INFECTION ASSAY - IC50) was above 8.54 µM.
Turning to `COc1ccc(-c2csc(CC(=O)NCc3ccccc3)n2)c(OC)c1`, the IC90 is above 10 µM. Moreover, the IC50 under setting [1] was above 10 µM.
Take `Cc1ccc(-n2c(C)cc(C(=O)CSc3n[nH]c(=O)n3C3CC3)c2C)cc1C`: the IC90 is above 10 µM. Moreover, the 50% inhibitory concentration (IC50) under setting [1] was above 10 µM.
Take `COc1ccc(NS(=O)(=O)c2cccc(C(=O)N/N=C(\c3ccccc3)c3ccccn3)c2)cc1`: the IC90 was found to be 6.62 µM. Besides, where the note is “FFLUC_HILL_SLOPE 6.58, FFLUC_R_SQUARED 0.0766, HEPG2TOX_HILL_SLOPE 0.953, HEPG2TOX_R_SQUARED 0.956, PBLUC_HILL_SLOPE 1.34, PBLUC_R_SQUARED 0.562, read-out: LUCIFERASE INFECTION ASSAY - IC50”, the IC50 came to 1.29 µM.
For the compound `CC(C)c1nc(NCC2CCCO2)c(C#N)c2c1CCCC2` (stereo not given), the 90% effect concentration (IC90) is above 11 µM. Further, the half-maximal inhibitory concentration (IC50) (PBLUC_HILL_SLOPE 0.297, PBLUC_R_SQUARED 0.0572, read-out: LUCIFERASE INFECTION ASSAY - IC50) was above 11 µM.
In the case of `CN(C)C(=O)c1cccc(-c2cn3c(-c4ccc5ncccc5c4)cnc3cn2)c1`, the concentration for an effect of 90% (IC90) was above 8.39 µM. Further, the IC50 (PBLUC_HILL_SLOPE 5.92, PBLUC_R_SQUARED 0.583, read-out: LUCIFERASE INFECTION ASSAY - IC50) came out at 5.83 µM.
Take `CCCCNC(=O)c1c(NC(=O)c2cccc(C)c2)nc2ccc(C)cn12`: the IC90 came to 3.17 µM. Further, the IC50 (FFLUC_HILL_SLOPE 134, FFLUC_R_SQUARED 0.564, HEPG2TOX_HILL_SLOPE 2.72, HEPG2TOX_R_SQUARED 0.791, PBLUC_HILL_SLOPE 3.36, PBLUC_R_SQUARED 0.556, read-out: LUCIFERASE INFECTION ASSAY - IC50) was 1.65 µM.
On to `COc1cccc(-c2cnc3c(NC=O)cc(-c4ccc(OC)cc4OC)cn23)c1`, for which the IC90 was 0.664 µM. Also, under “HEPG2TOX_HILL_SLOPE 0.453, HEPG2TOX_R_SQUARED 0.602, PBLUC_HILL_SLOPE 0.932, PBLUC_R_SQUARED 0.666, read-out: LUCIFERASE INFECTION ASSAY - IC50”, the 50% inhibitory concentration (IC50) is 0.0629 µM.
As to `Cc1cccc(N2CCN(C(=O)c3cc4ccccc4o3)CC2C)c1` (stereo not given), the IC90 is above 10 µM. The concentration for half-maximal inhibition (IC50) (PBLUC_HILL_SLOPE 1.92, PBLUC_R_SQUARED 0.443, read-out: LUCIFERASE INFECTION ASSAY - IC50) was 4.83 µM.
